Assay [1] has as its target T1, human recombinant PTP1B (1–302) (Homo sapiens, UniProt P18031).
T1 construct: human recombinant PTP1B (1–302)
T1 sequence (P18031 1-302): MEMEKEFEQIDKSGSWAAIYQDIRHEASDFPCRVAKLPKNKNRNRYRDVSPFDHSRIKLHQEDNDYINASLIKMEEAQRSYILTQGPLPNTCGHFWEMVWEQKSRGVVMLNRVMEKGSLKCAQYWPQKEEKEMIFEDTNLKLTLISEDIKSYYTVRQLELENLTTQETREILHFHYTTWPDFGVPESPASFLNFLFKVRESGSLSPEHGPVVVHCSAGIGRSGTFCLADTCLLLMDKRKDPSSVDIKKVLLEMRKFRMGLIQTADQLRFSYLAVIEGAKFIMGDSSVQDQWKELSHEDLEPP
The assay is described as follows: PTP1B enzymatic assay (p-NPP hydrolysis; preliminary screening and IC50). The settings on record: for Effect on PTP1B activity in preliminary screening: 20 µM of each compound, 30 min; for IC50: 2.5 mM p-NPP, pH 7.0, 37 °C, mean ± SD (n = 3), read-out: IC50 values determined on PTP1B. The format is biochemical. Here is the method: We performed enzymatic assays as previously described. For each assay, an aliquot of human recombinant PTP1B (1–302) was added in the assay buffer (0.075 M β,β-dimethylglutarate pH 7.0 containing 1 mM EDTA, 0.1 mM DTT and a p-nitrophenylphosphate (p-NPP) (Chemcruz, Santa Cruz Biotechnology (Santa Cruz, CA, USA)). The reactions were performed at 37 °C in a final volume of 1 mL. After adequate time (30 min) of incubation, the reactions were stopped adding 2 mL of 0.1 M KOH in each sample. The released amount of p-nitrophenol, product of the reaction, was determined by measuring the absorbance at 400 nm in a 1 cm pathlength cuvette.
The IC50 value of compounds against PTP1B was determined by measuring the hydrolysis rate of the enzyme in the presence of a fixed substrate concentration (2.5 mM p-NPP) and increasing inhibitor concentrations (generally 14–16 different concentrations). Each test was carried out in triplicate. Experimental data were normalized respect to control samples and then fitted using a non-linear fitting software, using the following equation: Vi/V0=Max−Min/1+x/IC50^slope+Min where the Vi/V0 value represents the relative activity calculated in presence of each inhibitor concentration; the maximum and minimum value of the activity are represented by “Max” and “Min”, respectively; “x” is the concentration of the inhibitor; IC50 is the inhibitor concentration able to decrease the enzymatic activity up to 50%; “slope” represents the slope of the curve in the transition zone.
Figure 2 Preliminary screening assay on PTP1B. All assays were started by diluting an aliquot of PTP1B in the assay solution containing substrate alone (control test) or substrate and an aliquot of each compound (20 µM, final concentration). After 30 min, the reactions were stopped by adding a concentrated KOH solution. The enzyme activity was determined by measuring the amount of p-nitrophenol that was released in each sample using a spectrophotometer. Data obtained were normalized respect to control sample. […] Statistical analysis was carried out using one way ANOVA followed by Tukey’s HSD test for pairwise comparisons. Statistics have been drawn on raw data and compare samples to control (Ctr). * p < 0.05; ** p < 0.01.
Figure 3 Determination of the IC50 values with compounds 3, 8a, 8b, 9a and 9b. An aliquot of PTP1B enzyme was diluted in the presence of increasing concentration of the compounds. The activity of PTP1B was determined by measuring the absorbance of the sample at 400 nm, using a spectrophotometer. Data obtained were normalized respect to the control sample and analysed using a non-linear fitting software.

For the next assay, the target named is T2, human recombinant AR (Homo sapiens, UniProt P15121).
T2 construct: made in house
The assay is described as follows: AR enzymatic assay (NADPH oxidation, L-idose substrate). In kind it is biochemical. The settings on record: for remaining activity at 43 µM: 43 µM (maximal concentration used); for % residual activity of human AR / remaining activity at 210 µM: 210 µM (maximal concentration used); for % residual activity of human AR: 210 µM. The protocol:
The human recombinant AR, purified to electrophoretic homogeneity as described, was used as target enzyme. AR activity was determined at 37 °C as previously described by evaluating the decrease in absorbance at 340 nm linked to NADPH oxidation using a Biochrom Libra S60 spectrophotometer. The standard assay mixture contained 0.25 M sodium phosphate buffer pH 6.8, 0.18 mM NADPH, 0.42 M ammonium sulfate, 0.5 mM EDTA and 4.7 mM D,L-glyceraldehyde. One unit of enzyme activity is the amount that catalyses the conversion of 1 µmol of substrate/min in the above assay conditions. For AR inhibition studies, 0.8 mM L-idose was used as substrate in the conditions described above, in the presence of 10 mU of enzyme and of a final concentration of DMSO of 0.7% (v/v).

Another assay has as its system GST–PTP1B fusion protein. Further details: method as in PMID 27064611. The settings on record: different pH value, read-out: IC50 on PTP1B previously determined; cited from earlier work.
A further assay has as its system PTP1B. The arrangement: method as in PMID 34677434. The settings on record: cited from earlier work.
A further assay relates to AR. Further details: method as in PMID 34677434. The following applies: cited from earlier work.
Another assay relates to HepG2 cells. The arrangement: method as in PMID 34677434. The following applies: cited from earlier work.
[2] abbreviates: read-out: % residual activity of human AR.

The text below walks through data of article PMC8950868, “Identifying Human PTP1B Enzyme Inhibitors from Marine Natural Products: Perspectives for Developing of Novel Insulin-Mimetic Drugs” (Pharmaceuticals, 2022).

For `CCCCC[C@H](O)[C@H](O)CC[C@@H](O)CCCC` [Compound 4b, (5S,8R,9S)-tetradecane-5,8,9-triol], in assay [1], the “Effect on PTP1B activity in preliminary screening” value (“Effect on PTP1B activity” below) was “loss of activity”. Besides, at human recombinant AR (setting [2]), the remaining activity at 43 µM came out at 98 ± 3%.

Consider `CCCCC[C@H](O)[C@@H](CC[C@H](CCCC)OC(C)=O)OP(=O)(O)O` (relative stereo) [Compound 9b], for which, in assay [1], the “Effect on PTP1B activity” value is on record as “reducing PTP1B activity” and the IC50 was 63 ± 14 µM. Moreover, the “% residual activity of human AR” value at human recombinant AR worked out at 74 ± 6%. The remaining activity at 210 µM on human recombinant AR (setting [2]) stood at 77%.

Regarding `CCCCC[C@@H](O)[C@H](CC[C@H](CCCC)OC(C)=O)OP(=O)(O)O` (relative stereo) [Compound 9a], in assay [1], the “Effect on PTP1B activity” value is listed as “reducing PTP1B activity” and the IC50 amounted to 83 ± 15 µM. Further, on human recombinant AR (107 µM (maximal concentration used), read-out: % residual activity of human AR), the remaining activity at 107 µM stood at 86 ± 2%.

On to `O=C(O)CNC(=O)CCCCCC[C@H](O)CCCO` [Compound 2], for which, in assay [1], the “Effect on PTP1B activity” value is “loss of activity”. Besides, the “AR inhibition (in words)” value at human recombinant AR was “ineffective”. Besides, the remaining activity at 71 µM at human recombinant AR (71 µM (maximal concentration used), read-out: % residual activity of human AR) was determined as 103 ± 4%.

In the case of `CCCCC[C@H](OP(=O)(O)O)[C@H](O)CC[C@H](CCCC)OC(C)=O` (relative stereo) [Compound 8b], in assay [1], the “Effect on PTP1B activity” value was “reducing PTP1B activity” and the IC50 is 37.1 ± 6.5 µM. Also, the “% residual activity of human AR” value on human recombinant AR worked out at 74 ± 8%. In addition, the remaining activity at 210 µM at human recombinant AR (setting [2]) turned out to be 76%.

For `CCCCC[C@H](O)[C@H](O)CC[C@H](CCCC)OC(C)=O` (relative stereo) [Compound 7b], in assay [1], the “Effect on PTP1B activity” value is given as “loss of activity”.

`CCCCC[C@@H](O)[C@@H](O)CC[C@H](CCCC)OC(C)=O` (relative stereo) [Compound 7a]: the “Effect on PTP1B activity” value in assay [1] is on record as “loss of activity”.

In the case of `CCCCCCCCCCCCCCC(OP(=O)(O)O)C(O)CCC(O)C(O)CCC(O)CCCCCCC(=O)NCC(=O)O` (stereo not shown) [Phosphoeleganin, phosphoeleganin], the figures for the IC50 (in assay [1]; with GST–PTP1B fusion protein) were 0.7 ± 0.1 µM and 11 ± 2 µM, respectively. Further, in the assay on PTP1B, the “Type of PTP1B inhibition” value was “pure non-competitive inhibitor”. Further, the “Type of AR inhibition” value in the assay on AR is “mixed-type inhibitor”. In addition, the “Activity in HepG2 cells” value in the assay on HepG2 cells was “insulin-sensitizing activity”.

Regarding `CCCCC[C@@H](O)[C@@H](O)CC[C@@H](O)CCCC` [Compound 4a, (5S,8S,9R)-tetradecane-5,8,9-triol], in assay [1], the “Effect on PTP1B activity” value is recorded as “loss of activity”. For the same compound, at human recombinant AR (setting [2]), the remaining activity at 43 µM stood at 97 ± 4%.
